How the values were obtained:
[1] = target: T1, Metabotropic glutamate receptor 2 (Homo sapiens, UniProt Q14416); experiment: Positive allosteric modulation of human mGlu2 receptor expressed in CHO cells assessed as glutamate-induced [35S]GTPgammaS binding after 30 mins by liquid scintillation counting; type: functional, cell-based
Target sequence in this assay (Q14416 whole entry): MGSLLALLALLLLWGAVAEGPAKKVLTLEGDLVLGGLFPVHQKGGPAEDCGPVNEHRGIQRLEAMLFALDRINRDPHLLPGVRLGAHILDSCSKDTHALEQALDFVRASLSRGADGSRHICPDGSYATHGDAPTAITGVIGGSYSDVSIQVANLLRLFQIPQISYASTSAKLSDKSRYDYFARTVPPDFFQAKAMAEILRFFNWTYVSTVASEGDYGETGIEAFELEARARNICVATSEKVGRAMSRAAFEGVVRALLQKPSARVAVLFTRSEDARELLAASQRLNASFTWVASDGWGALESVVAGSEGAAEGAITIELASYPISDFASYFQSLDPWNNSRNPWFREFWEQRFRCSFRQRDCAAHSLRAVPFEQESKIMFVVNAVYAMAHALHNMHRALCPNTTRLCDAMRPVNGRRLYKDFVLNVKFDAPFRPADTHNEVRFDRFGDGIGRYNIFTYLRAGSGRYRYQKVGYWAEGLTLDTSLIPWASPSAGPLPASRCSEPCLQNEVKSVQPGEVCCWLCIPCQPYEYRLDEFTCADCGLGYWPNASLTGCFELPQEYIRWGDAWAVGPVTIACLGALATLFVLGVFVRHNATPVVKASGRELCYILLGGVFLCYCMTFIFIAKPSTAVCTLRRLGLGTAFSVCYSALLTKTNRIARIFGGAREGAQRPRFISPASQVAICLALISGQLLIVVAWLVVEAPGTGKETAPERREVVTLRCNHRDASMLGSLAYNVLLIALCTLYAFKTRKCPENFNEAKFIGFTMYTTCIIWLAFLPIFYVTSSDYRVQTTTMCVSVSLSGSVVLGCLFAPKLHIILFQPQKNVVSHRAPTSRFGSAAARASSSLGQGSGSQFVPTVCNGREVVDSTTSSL

[2] = target: T1, Metabotropic glutamate receptor 2; experiment: Positive allosteric modulation of human mGlu2 receptor expressed in CHO cells assessed as glutamate-induced [35S]GTPgammaS binding after 30 mins by liquid scintillation counting relative to glutamate; type: functional, cell-based
Target sequence in this assay (Q14416 19-872 limits assumed): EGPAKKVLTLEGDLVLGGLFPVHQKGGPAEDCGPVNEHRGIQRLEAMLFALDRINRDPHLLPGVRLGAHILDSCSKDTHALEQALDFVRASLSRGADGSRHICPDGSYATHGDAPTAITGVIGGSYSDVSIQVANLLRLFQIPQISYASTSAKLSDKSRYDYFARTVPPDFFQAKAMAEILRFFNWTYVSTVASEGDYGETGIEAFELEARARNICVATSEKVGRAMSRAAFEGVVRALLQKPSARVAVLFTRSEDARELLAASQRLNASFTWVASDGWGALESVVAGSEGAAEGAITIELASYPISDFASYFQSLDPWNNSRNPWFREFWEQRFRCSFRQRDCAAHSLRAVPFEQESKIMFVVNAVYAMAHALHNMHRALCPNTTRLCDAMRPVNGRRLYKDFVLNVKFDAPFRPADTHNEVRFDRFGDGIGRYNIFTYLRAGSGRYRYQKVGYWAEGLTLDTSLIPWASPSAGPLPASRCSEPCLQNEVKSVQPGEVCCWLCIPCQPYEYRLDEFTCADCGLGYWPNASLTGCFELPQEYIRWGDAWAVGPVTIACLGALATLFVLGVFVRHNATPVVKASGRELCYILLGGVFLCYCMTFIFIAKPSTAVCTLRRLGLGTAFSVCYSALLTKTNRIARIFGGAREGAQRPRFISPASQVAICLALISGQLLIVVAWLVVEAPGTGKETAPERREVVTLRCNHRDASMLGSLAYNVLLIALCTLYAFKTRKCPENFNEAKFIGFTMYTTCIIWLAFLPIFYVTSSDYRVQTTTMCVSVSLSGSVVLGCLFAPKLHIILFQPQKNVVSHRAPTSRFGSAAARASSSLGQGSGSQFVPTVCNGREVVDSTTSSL

[3] = target: hERG (Homo sapiens, UniProt Q12809); experiment: Inhibition of human ERG expressed in HEK293 cells assessed as whole cell current at 3 uM after 5 mins by automated patch-clamp assay relative to control; type: cell-based; details: HEK293 cells expressing hERG
[4] = Drug metabolism in human liver microsomes at 5 uM after 15 mins; type: ADME, Microsome; details: read-out: Drug metabolism
[5] = Drug metabolism in rat liver microsomes at 5 uM after 15 mins; type: ADME, Microsome; details: read-out: Drug metabolism
[6] = Ratio of drug level in brain to plasma in Swiss mouse at 10 mg/kg, sc after 1 hr; type: ADME, organism-based; design: dose 10 mg/kg, route subcutaneous; details: read-out: BPR
[7] = Drug level in Swiss mouse brain at 10 mg/kg, sc after 1 hr; type: ADME, organism-based; design: dose 10 mg/kg, route subcutaneous; details: read-out: Drug uptake
[8] = Drug level in Swiss mouse brain at 10 mg/kg, sc after 1.5 hrs; type: ADME, organism-based; design: dose 10 mg/kg, route subcutaneous; details: read-out: Drug uptake
[9] = Drug level in Swiss mouse brain at 10 mg/kg, sc after 0.5 hrs; type: ADME, organism-based; design: dose 10 mg/kg, route subcutaneous; details: read-out: Drug uptake
[10] = Aqueous solubility of the compound in 20% HP-beta-CD buffer at pH 4; type: physicochemical

hERG, sequence (Q12809 whole entry): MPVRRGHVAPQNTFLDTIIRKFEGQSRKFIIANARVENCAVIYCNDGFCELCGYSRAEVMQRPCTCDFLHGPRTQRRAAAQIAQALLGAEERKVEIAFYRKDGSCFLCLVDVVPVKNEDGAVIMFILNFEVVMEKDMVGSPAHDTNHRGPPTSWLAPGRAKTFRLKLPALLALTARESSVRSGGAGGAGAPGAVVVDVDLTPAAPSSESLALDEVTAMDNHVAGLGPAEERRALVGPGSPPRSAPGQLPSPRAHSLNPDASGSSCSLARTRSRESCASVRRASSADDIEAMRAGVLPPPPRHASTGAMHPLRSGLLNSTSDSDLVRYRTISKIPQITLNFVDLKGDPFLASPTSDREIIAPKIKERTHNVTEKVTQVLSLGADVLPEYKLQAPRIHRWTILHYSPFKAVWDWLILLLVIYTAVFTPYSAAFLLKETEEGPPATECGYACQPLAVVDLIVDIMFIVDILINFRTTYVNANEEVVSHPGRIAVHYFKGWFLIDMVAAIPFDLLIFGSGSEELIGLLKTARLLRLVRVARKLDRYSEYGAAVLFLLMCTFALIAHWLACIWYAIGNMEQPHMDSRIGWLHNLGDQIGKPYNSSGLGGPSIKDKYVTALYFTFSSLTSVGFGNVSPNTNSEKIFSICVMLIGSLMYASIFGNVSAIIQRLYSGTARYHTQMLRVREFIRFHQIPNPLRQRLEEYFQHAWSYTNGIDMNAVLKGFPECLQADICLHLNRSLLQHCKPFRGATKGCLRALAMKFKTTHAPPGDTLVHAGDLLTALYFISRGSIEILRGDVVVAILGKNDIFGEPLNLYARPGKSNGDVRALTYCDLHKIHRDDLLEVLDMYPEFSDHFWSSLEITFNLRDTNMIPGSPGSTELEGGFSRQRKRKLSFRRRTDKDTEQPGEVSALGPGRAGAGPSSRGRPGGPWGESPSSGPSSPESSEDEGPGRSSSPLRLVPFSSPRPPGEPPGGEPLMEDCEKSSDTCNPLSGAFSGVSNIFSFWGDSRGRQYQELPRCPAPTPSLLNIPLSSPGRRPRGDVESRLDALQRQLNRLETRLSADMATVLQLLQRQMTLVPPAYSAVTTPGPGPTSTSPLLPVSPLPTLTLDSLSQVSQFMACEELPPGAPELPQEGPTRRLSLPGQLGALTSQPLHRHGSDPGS

SMILES	EC50 [1] [nM]	Emax [2] [%]	inhibition at 5 min, 3 µM [3] [%]	metabolised at 0.25 h, 5 µM [4] [%]	metabolised at 0.25 h, 5 µM [5] [%]	Kp at 1 h [6]	concentration at 1 h [7] [ng/g]	concentration at 1.5 h [8] [ng/g]	concentration at 0.5 h [9] [ng/g]	solubility [10] [µg/mL]
COc1ccc(-c2ccn(CCC(C)C)c(=O)c2C#N)cc1	1150	160								
Cc1ncccc1Oc1ccc(-c2ccn(CCC(C)C)c(=O)c2C#N)cc1	275	256	36	57	45					
CNc1ccc(-c2ccn(CCC(C)C)c(=O)c2C#N)cc1	460	186								
COc1ccccc1-c1ccn(CCC(C)C)c(=O)c1C#N	> 10000	120		38						
Cc1ncccc1Oc1ccc(-c2ccn(CC3CC3)c(=O)c2C#N)cc1	1070	155		36	39					
CCCCn1ccc(-c2ccc(Oc3ccc(C)nc3C)c(Cl)c2)c(C#N)c1=O	30	231	80	34	50	0.4	830	281	1480	
CC(C)CCn1ccc(-c2ccc(NC3CCOCC3)c(Cl)c2)c(C#N)c1=O	174	247		42	47					
CCCCn1ccc(-c2ccc(Oc3ccnc(C)c3)cc2Cl)c(C#N)c1=O	933	187		34	47					
CC(C)CCn1ccc(-c2ccc(Oc3ccccn3)cc2)c(C#N)c1=O	646	249	33	20	36					
CCCCn1ccc(-c2ccc(Oc3ccnc(C)c3)c(Cl)c2)c(C#N)c1=O	166	245		35	51					
CCCCn1ccc(-c2ccc(Oc3ccnc(C)c3)cc2F)c(C#N)c1=O		232	52	31	50					
CC(C)CCn1ccc(-c2ccc(N3CCOCC3)cc2)c(C#N)c1=O	2040	236		38	48					
CC(C)CCn1ccc(-c2ccc(Nc3ccncc3)cc2)c(C#N)c1=O	1480	186	91	25	33					
Cc1ccc(Oc2ccc(-c3ccn(CC4CC4)c(=O)c3C#N)cc2Cl)c(C)n1	64	196	89	25	27	0.1	357	240	750	
CC(C)CCn1ccc(-c2ccc(OCC3CC3)c(Cl)c2)c(C#N)c1=O	110	206		17	72					
CC(C)CCn1ccc(-c2ccc(OCC3CC3)cc2)c(C#N)c1=O	290	192		17	16					
COc1ccc(-c2ccn(CCC(C)C)c(=O)c2C#N)cc1OC	260	242		26						

SMILES	EC50 [1] [nM]	Emax [2] [%]	inhibition at 5 min, 3 µM [3] [%]	metabolised at 0.25 h, 5 µM [4] [%]	metabolised at 0.25 h, 5 µM [5] [%]	Kp at 1 h [6]	concentration at 1 h [7] [ng/g]	concentration at 1.5 h [8] [ng/g]	concentration at 0.5 h [9] [ng/g]	solubility [10] [µg/mL]
CC(C)CCn1ccc(-c2ccc(OC3CCCC3)c(Cl)c2)c(C#N)c1=O	100	199								
CC(C)CCn1ccc(-c2ccc(Oc3cccnc3)cc2)c(C#N)c1=O	479	231	30	21	29					≥ 4000
CC(C)CCn1ccc(-c2ccc(OC3CCOCC3)c(Cl)c2)c(C#N)c1=O	186	197		36	54					
Cc1cc(Oc2ccc(-c3ccn(CC4CC4)c(=O)c3C#N)cc2)ccn1	832	199		9	19					
Cc1ncccc1Oc1ccc(-c2ccn(CC3CC3)c(=O)c2C#N)cc1Cl	230	180	75	37	22					
COc1ccc(-c2ccn(CCC(C)C)c(=O)c2C#N)cc1F	1170	160		35						
Cc1ccc(Oc2ccc(-c3ccn(CC4CC4)c(=O)c3C#N)cc2)c(C)n1	263	183	68	35	42					
Cc1ccc(Oc2ccc(-c3ccn(CCC(C)C)c(=O)c3C#N)cc2)c(C)n1	100	246		59	49					
CCCCn1ccc(-c2ccc(Oc3cc(C)nc(C)c3)c(F)c2)c(C#N)c1=O	372	217	71	16	41					
CCCCn1ccc(-c2ccc(Oc3cccnc3C)cc2)c(C#N)c1=O	347	228	31	30	50	0.3	294	100	822	
COc1ccc(-c2ccn(CCC(C)C)c(=O)c2C#N)cc1Cl	363	200		43	99					
COc1cccc(-c2ccn(CCC(C)C)c(=O)c2C#N)c1		176		74						
CCCCn1ccc(-c2ccc(Oc3cccnc3C)c(Cl)c2)c(C#N)c1=O	100	236	56	29	60					
Cc1cc(Oc2ccc(-c3ccn(CC4CCC4)c(=O)c3C#N)cc2)ccn1	126	233	80	36	44					
CC(C)CCn1ccc(-c2ccccc2)c(C#N)c1=O	8510	117		36	100					
CCCCn1ccc(-c2ccc(Oc3ccc(C)nc3C)cc2)c(C#N)c1=O	138	239		51	60					
